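Growth conditions: 96-well plates. Treatment: test compound, 48 hours, 5 concentrations. Analysis: linear interpolation between bracketing concentrations; unreached endpoints set to highest concentration. The concentration for 50% growth inhibition is given as GI50.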 The source made the active and inactive calls. Rule as the data show it: active = GI50 up to about 1.1 µM and inactive = higher.
Tests used:
Test in all cases: growth of human tumour cells (NCI), 48 h
A549 = test system: A549
DMS-114 = test system: DMS-114
DMS-273 = test system: DMS-273
HOP-18 = test system: HOP-18
KM-20L2 = test system: KM-20L2
M19-MEL = test system: M19-MEL
RPMI-8226 = test system: RPMI-8226
SF-268 = test system: SF-268
SF-539 = test system: SF-539
SK-MEL-5 = test system: SK-MEL-5
SNB-78 = test system: SNB-78
XF498 = test system: XF498
BT-549 = test system: BT-549
DU-145 = test system: DU-145
M14 = test system: M14
MDA-MB-231 = test system: MDA-MB-231
MDA-MB-435 = test system: MDA-MB-435
MDA-N = test system: MDA-N
SR = test system: SR
T47D = test system: T47D

| SMILES | GI50 (A549) | GI50 (DMS-114) | GI50 (DMS-273) | GI50 (HOP-18) | GI50 (KM-20L2) | GI50 (M19-MEL) | GI50 (RPMI-8226) | GI50 (SF-268) | GI50 (SF-539) | GI50 (SK-MEL-5) | GI50 (SNB-78) | GI50 (XF498) | GI50 (BT-549) | GI50 (DU-145) | GI50 (M14) | GI50 (MDA-MB-231) | GI50 (MDA-MB-435) | GI50 (MDA-N) | GI50 (SR) | GI50 (T47D) |
| --- | --- | --- | --- | --- | --- | --- | --- | --- | --- | --- | --- | --- | --- | --- | --- | --- | --- | --- | --- | --- |
| Cc1ccc2nc3c(C(=O)NCCN(C)C)cccc3cc2c1 | 1.33 µM (inactive) | 1.53 µM (inactive) | 1.5 µM (inactive) | 1.46 µM (inactive) | 0.75 µM (active) | 1.95 µM (inactive) | 1.58 µM (inactive) | 1.26 µM (inactive) | 3.15 µM (inactive) | 1.76 µM (inactive) | 4.24 µM (inactive) | 1.8 µM (inactive) |  |  |  |  |  |  |  |  |
| CC(=O)O[C@H]1CC[C@H]2[C@@H]3CC[C@H]4Nc5c(cnn5S(C)(=O)=O)C[C@]4(C)[C@H]3CC[C@]12C |  |  |  |  |  |  | > 100 µM (inactive) |  |  | 84.3 µM (inactive) |  |  | 27.5 µM (inactive) | > 100 µM (inactive) | 91.4 µM (inactive) | > 100 µM (inactive) | > 100 µM (inactive) | > 100 µM (inactive) | > 100 µM (inactive) | 37 µM (inactive) |
| O=C1CN2C(Cl)(Cl)C2(c2ccccc2)c2cc(Cl)ccc2N1CC(F)(F)F (stereo not given) |  | 27.2 µM (inactive) | 24.8 µM (inactive) |  | 32.5 µM (inactive) | 38.3 µM (inactive) | 32.4 µM (inactive) | 38.4 µM (inactive) |  | 17.9 µM (inactive) |  |  |  |  | 24 µM (inactive) |  |  |  | 28.9 µM (inactive) |  |
| O=S1(=O)C[C@@H](NCc2ccccc2)[C@H](NCc2ccccc2)C1 | > 100 µM (inactive) |  |  |  |  |  | > 100 µM (inactive) | > 100 µM (inactive) | > 100 µM (inactive) | > 100 µM (inactive) |  |  | > 100 µM (inactive) | > 100 µM (inactive) | 53.5 µM (inactive) | > 100 µM (inactive) | > 100 µM (inactive) | > 100 µM (inactive) | > 100 µM (inactive) | > 100 µM (inactive) |
| CN1C2CC(=O)CC1[C@H](O)[C@@H]2O |  |  |  |  |  |  | > 100 µM (inactive) | > 100 µM (inactive) |  |  |  |  | > 100 µM (inactive) | > 100 µM (inactive) | > 100 µM (inactive) | > 100 µM (inactive) | > 100 µM (inactive) | > 100 µM (inactive) | > 100 µM (inactive) | > 100 µM (inactive) |
| CC1OC1C(=O)C1(O)C(C)C(O)C23OC2(C(O)c2c(O)cccc2C3=O)C1O (stereo not given) [CERVICARCIN] | 0.0488 µM (active) | 0.048 µM (active) | 0.184 µM (active) | 0.0605 µM (active) | 0.214 µM (active) | 0.0933 µM (active) | 0.0847 µM (active) | 0.0984 µM (active) | 0.0647 µM (active) | 0.179 µM (active) | 0.267 µM (active) | 0.253 µM (active) |  |  |  |  |  |  |  |  |
| COc1ccc2c3c1O[C@H]1C[C@@H](O)C=C[C@@]31CCN(C)C2 [GALANTAMINE] | > 150 µM (inactive) | > 150 µM (inactive) | > 150 µM (inactive) | > 150 µM (inactive) | > 150 µM (inactive) | > 150 µM (inactive) | > 150 µM (inactive) | 87.7 µM (inactive) | > 18.9 µM (inactive) | > 150 µM (inactive) | 103 µM (inactive) | > 150 µM (inactive) |  |  |  |  |  |  |  |  |
| O=c1cc[nH]c(=O)[nH]1 [URACIL] | 435 µM (inactive) | 553 µM (inactive) | 403 µM (inactive) | > 1000 µM (inactive) | 426 µM (inactive) | 279 µM (inactive) | > 946 µM (inactive) | 578 µM (inactive) | 378 µM (inactive) | 177 µM (inactive) | 475 µM (inactive) | 4.23 µM (inactive) |  |  |  |  |  |  |  |  |
